Some test systems named below: DU-145 prostate; HCT-116 colon; MCF7 breast; MOLT-4 leukemia; SK-MEL-28 melanoma; SN12C renal; T-47D breast; UACC-257 melanoma; UO-31 renal; CCRF-CEM leukemia.
Holding throughout (test): NCI tumour cell line growth inhibition, 48 h

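Cultured in 96-well plates, cells were exposed to test compound for 48 hours across five concentrations. Here, GI50 denotes the concentration required for 50% inhibition of growth. TGI: total growth inhibition.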

As to `Cc1nnc2n1N=C(c1ccc(Cl)cc1Cl)/C(=C/c1ccc(-c3ccc([N+](=O)[O-])cc3Cl)o1)S2`, the GI50 in the experiment with DU-145 prostate was 18.7 µM; in the experiment on HCT-116 colon, 12.3 µM; in the experiment on MCF7 breast, 2.06 µM; in the experiment with MOLT-4 leukemia it was 13.1 µM; in the experiment on SK-MEL-28 melanoma, 57.3 µM; in the experiment on SN12C renal, 17.8 µM. The GI50 with T-47D breast was 83 µM; with UACC-257 melanoma, 18.1 µM; with UO-31 renal, 14.8 µM. Also, the TGI with DU-145 prostate is 38.9 µM; in the experiment on HCT-116 colon, 24.8 µM; in the experiment with MCF7 breast, 14.3 µM; in the experiment with MOLT-4 leukemia it was 33.6 µM; in the experiment on SK-MEL-28 melanoma it was greater than 100 µM; in the experiment with SN12C renal, 40.9 µM. Further, the TGI in the experiment with T-47D breast was greater than 100 µM; in the experiment on UACC-257 melanoma it was 41.2 µM; in the experiment with UO-31 renal, 31 µM.
For the compound `COc1cc(C2C(Cl)C(=O)N2c2c(C)n(C)n(-c3ccccc3)c2=O)ccc1O` (stereo not given), the TGI in the experiment with CCRF-CEM leukemia is 79.7 µM; in the experiment on DU-145 prostate it was greater than 100 µM; in the experiment with HCT-116 colon, 19.3 µM; in the experiment on MCF7 breast, 48.7 µM; with MOLT-4 leukemia, 67 µM; with SN12C renal it was 37.9 µM. The TGI with T-47D breast was greater than 100 µM; with UACC-257 melanoma, 40.7 µM; in the experiment with UO-31 renal, 32.9 µM.
As for `COC(=O)C1C(=O)N(C)C(=O)N2CCCC12` (stereo not given), the TGI in the experiment on CCRF-CEM leukemia, with DU-145 prostate, with MCF7 breast, in the experiment with MOLT-4 leukemia, in the experiment on SK-MEL-28 melanoma and in the experiment on T-47D breast was greater than 100 µM each time. Also, the TGI in the experiment on UACC-257 melanoma and with UO-31 renal was greater than 100 µM throughout.
Take `Cc1cc2c([nH]c3ccccc32)c(O)c1-c1c(C)cc2c([nH]c3ccccc32)c1O`: the TGI in the experiment with DU-145 prostate was found to be 25.7 µM; with HCT-116 colon, 27.2 µM; with MCF7 breast, 25 µM; in the experiment with MOLT-4 leukemia it was 16.3 µM; with SK-MEL-28 melanoma, 55 µM; in the experiment with SN12C renal it was 6.44 µM. The TGI with T-47D breast turned out to be 31.3 µM; with UACC-257 melanoma, 30.9 µM; in the experiment with UO-31 renal, 25.7 µM. Further, the results for the GI50 with MCF7 breast, in the experiment on MOLT-4 leukemia and in the experiment with UO-31 renal were 11.2 µM, 3.62 µM and 13 µM, respectively.
Turning to `CN(C)CCn1c(CO)nc2c1c(=O)n(C)c(=O)n2C`, the TGI in the experiment with CCRF-CEM leukemia, in the experiment with DU-145 prostate, in the experiment with HCT-116 colon, in the experiment on MCF7 breast, in the experiment with SK-MEL-28 melanoma and with SN12C renal was greater than 100 µM throughout. Besides, the TGI with T-47D breast, with UACC-257 melanoma and in the experiment with UO-31 renal was greater than 100 µM throughout.
For the compound `CCOC(=O)c1cc(C)nc2c1c(=O)n(-c1ccccc1)c(=O)n2CCCCN1CCN(c2ccccc2)CC1`, the TGI in the experiment with DU-145 prostate, in the experiment on HCT-116 colon, with MCF7 breast, in the experiment on MOLT-4 leukemia, in the experiment with SK-MEL-28 melanoma and in the experiment on SN12C renal was greater than 100 µM throughout. Also, the TGI in the experiment on T-47D breast is greater than 100 µM; with UACC-257 melanoma, 99.8 µM; in the experiment with UO-31 renal, 65.2 µM.
For `C/C(=N\Nc1nc2ccccc2n1C)c1cc2ccccc2cn1`, the TGI in the experiment on CCRF-CEM leukemia is greater than 54.3 µM; with DU-145 prostate it was 8.08 µM; in the experiment on HCT-116 colon, 5.83 µM; with SK-MEL-28 melanoma, 16.6 µM; in the experiment on SN12C renal, 3.29 µM; in the experiment on T-47D breast, 5.66 µM. In addition, the figures for the TGI with UACC-257 melanoma and with UO-31 renal were 7.26 µM and 5.03 µM, respectively.
Regarding `COc1ccc(-c2oc3cc(O)cc(O)c3c(=O)c2OC)cc1`, the TGI with CCRF-CEM leukemia was greater than 100 µM; in the experiment with DU-145 prostate, greater than 100 µM; in the experiment with HCT-116 colon it was greater than 100 µM; in the experiment with MCF7 breast, greater than 100 µM; with MOLT-4 leukemia it was 87.9 µM; in the experiment with SK-MEL-28 melanoma it was greater than 100 µM. Besides, the TGI in the experiment on T-47D breast is greater than 100 µM; with UACC-257 melanoma it was greater than 100 µM; in the experiment on UO-31 renal, 56.6 µM.
As to `O=c1[nH]n(Cc2ccccc2)c2ccc([N+](=O)[O-])cc12`, the TGI with CCRF-CEM leukemia, in the experiment with DU-145 prostate, in the experiment with HCT-116 colon, in the experiment on MCF7 breast, in the experiment with MOLT-4 leukemia and in the experiment on SK-MEL-28 melanoma was greater than 100 µM in each case. The TGI in the experiment with SN12C renal, in the experiment on UACC-257 melanoma and with UO-31 renal was greater than 100 µM throughout.
For the compound `c1ccc(/C(=N/Nc2ccncn2)c2ccccn2)cc1`, the TGI in the experiment on CCRF-CEM leukemia was greater than 100 µM; in the experiment with DU-145 prostate, greater than 100 µM; with HCT-116 colon, greater than 100 µM; with MCF7 breast, greater than 100 µM; in the experiment on MOLT-4 leukemia, 49.2 µM; in the experiment with SK-MEL-28 melanoma, greater than 100 µM. In addition, the TGI in the experiment on SN12C renal was greater than 100 µM; in the experiment on UACC-257 melanoma, greater than 100 µM; in the experiment on UO-31 renal, 67.3 µM.
For `CC(=O)NC1C(OCc2ccccc2)OC(CO)C(O)C1OC(C)C(=O)NC(C(=O)NC(CCC(=O)NCCCCNc1c2ccccc2nc2cccc([N+](=O)[O-])c12)C(N)=O)C(C)C` (stereo not given), the TGI in the experiment on DU-145 prostate is 19.6 µM; in the experiment on HCT-116 colon it was 10.5 µM; in the experiment on MCF7 breast, greater than 44 µM; in the experiment on MOLT-4 leukemia it was 26.8 µM; in the experiment with SK-MEL-28 melanoma it was 7.19 µM; with SN12C renal it was 9.53 µM. Moreover, the TGI in the experiment with T-47D breast is greater than 38.2 µM; with UACC-257 melanoma it was 15.9 µM; with UO-31 renal, 13.4 µM.
With `COC[C@@H](N=Cc1ccc([N+](=O)[O-])cc1)C(C)C`, the TGI in the experiment with CCRF-CEM leukemia, with DU-145 prostate, with HCT-116 colon, in the experiment on MCF7 breast, with MOLT-4 leukemia and with SK-MEL-28 melanoma was greater than 100 µM throughout. Besides, the TGI with SN12C renal, in the experiment on UACC-257 melanoma and in the experiment on UO-31 renal was greater than 100 µM each time.
`O=C1NC(=O)C(C(CC(=O)c2ccc(Cl)cc2)c2ccc(Cl)cc2)C(=O)N1` (stereo not given): the TGI is greater than 100 µM with CCRF-CEM leukemia; greater than 100 µM in the experiment on DU-145 prostate; greater than 100 µM in the experiment on HCT-116 colon; 44.2 µM with MCF7 breast; greater than 100 µM in the experiment with MOLT-4 leukemia; greater than 100 µM in the experiment with SK-MEL-28 melanoma. Further, the TGI with SN12C renal, in the experiment on UACC-257 melanoma and in the experiment on UO-31 renal was greater than 100 µM in each case.
Turning to `Cc1ccc(S(=O)CC(CF)OCn2cc(C)c(=O)[nH]c2=O)cc1` (stereo not given), the TGI in the experiment with DU-145 prostate, in the experiment with HCT-116 colon, in the experiment with MCF7 breast, with MOLT-4 leukemia, with SK-MEL-28 melanoma and with SN12C renal was greater than 100 µM each time. The TGI in the experiment on T-47D breast and in the experiment on UO-31 renal was greater than 100 µM in each case.

The values are drawn from PubChem BioAssay (NCI).
